Data set [1] has as its system HCV replicon cell line (NS3 protein). Briefly: Western analysis of NS3 protein in the HCV replicon cell line. The format is cell-based, Hepatitis C virus. The method, then: Experiments were done in duplicate. Western analysis was performed according to the instructions for Amershams Chemiluminescence Immunology Kit (NEL105 Renaissance) using a Molecular Dynamics Storm 860 phosphoimager and associated software. The primary and secondary antibody dilutions were at 1 to 5,000. Antisera was generated by immunizing rabbits with purified NS3 protease made from an E. Coli expression vector encoding the first 181 amino acids of HCV 1a NS3 with subsequent boosts.
Bleeds were tested weekly and boosts continued until a positive signal on a control western was seen. Secondary antibody was a BioRad (#170–6515) Goat anti-Rabbit IgG HRP Conjugate. The protein samples for western analysis were from the same wells used for the FRET assay and were prepared by the addition of an equal volume of 2×SDS-PAGE buffer to the FRET assay mixture, heating and loading on a 10% gel for SDS-PAGE. Interferon alpha (IFN-α) was obtained from Sigma (#I-4276) and stored as recommended.

Data set [2] deals with HCV replicon cell line (Huh-7). Briefly: Alamar Blue cytotoxicity assay step. It is filed as cell-based. For orientation: Alamar Blue is a resazurin reagent that responds to reducing activity.
The test system of data set [3] is HCV replicon cell line (HCV RNA). Put plainly: Quantitative RT-PCR of HCV RNA in the HCV replicon cell line.
Data set [4] concerns HCV replicon cell line (NS3 protease activity). Put plainly: HCV replicon FRET assay (NS3 protease activity as indirect measure of HCV RNA replication).
Procedure: The HCV replicon cell line was isolated from colonies as described by Lohman et al. al. (Lohman, supra) and used for all experiments.
These cell lines were maintained at 37° C., 5% CO2, 100% relative humidity in DMEM (Life Technologies #11965-084) with 10% heat inactivated calf serum (Sigma #F-2442), 100 U/ml of penicillin/streptomycin (Life Technologies #15140-122), Geneticin at 1 mg/ml (Life Technologies #10131-027). One of the cell lines which had approximately 3,000 copies of HCV replicon RNA/cell was used for development of the assay.
To perform the HCV FRET screening assay, 96-well cell culture plates were used.
The assay reagent was made as follows: 5× cell Luciferase cell culture lysis reagent from Promega (#E153A) diluted to 1× with dH2O, NaCl added to 150 mM final, the FRET peptide diluted to 20 uM final from a 2 mM stock. Cells were trypsinized, placed into each well of a 96-well plate and allowed to attach overnight. The next day, the test compounds were added to columns 1 through 10; column 11 was media only, and column 12 contained a titration of interferon as a control (1000 units for A12, B12, 100 units for C12, D12, 10 units for E12, F12 and 1 unit for G12, H12). In addition, replicon cells in A12, B12 can be replaced, if desired, with naïve Huh-7 cells as a negative background control. The plates were then placed back in the incubator.
Subsequent to addition of the test compounds described above (FRET Assay Preparation), at various times the plate was removed and Alamar Blue solution (Trek Diagnostics, #00–100) was added per well as a measure of cellular toxicity.
Compound analysis was determined by quantification of the relative HCV replicon inhibition and the relative cytotoxicity values.
[5] abbreviates: FIG. 6A, titration 0.1 to 1,000 units per milliliter, 96 hours of incubation.
The mark [6] stands for this setting: interferon titration in HCV replicon cell line.

On to interferon-α [IFN-α], for which, in data set [1] (setting [5]), the “EC50, Western” value is given as 1.9 units of IFN-α per milliliter. Moreover, in data set [1] (setting [6]), the “EC50, western assay” value is given as 1.9 units. Also, in data set [2] (highest concentration of IFN-α, 1000 units, FIG. 7B wells A12 and B12), the “cytotoxicity (Alamar Blue)” value was “Approximately 18%”. Besides, the “cytotoxicity (Alamar Blue), in words” value in data set [2] (lower concentrations of IFN-α (below 1000 units)) was “no apparent Alamar Blue staining change”. The “EC50, RT-PCR” value in data set [3] (setting [5]) was 5.3 units of IFN-α per milliliter. Also, the “EC50, qRT-PCR assay” value in data set [3] (setting [6]) is 5.3 units. Moreover, the “EC50, FRET” value in data set [4] (setting [5]) is recorded as 2.9 units of IFN-α per milliliter. The “EC50, FRET assay” value in data set [4] (setting [6]) is recorded as 2.9 units. In addition, the “EC50 in IFN-α control samples of the compound plate, in words” value in data set [4] (random compound plate control titration 1000, 100, 10, 1 units, FIG. 7A) is “close to or slightly lower than the lowest concentration of IFN-α used”.
